Data published in PubChem BioAssay (NCI).
Where “and” joins values, the source holds several entries; their conditions need not be identical. Equal values may be shown once.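 Five concentrations, 48 hours, 96-well plates. GI50 is the concentration that inhibits growth by half. TGI: total growth inhibition.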

Legend:
Assay in all cases: inhibition of tumour cell growth, NCI panel, 48 h
A498 renal = test system: A498 renal
HL-60(TB) leukemia = test system: HL-60(TB) leukemia
HOP-92 NSCLC = test system: HOP-92 NSCLC
K-562 leukemia = test system: K-562 leukemia
OVCAR-4 ovarian = test system: OVCAR-4 ovarian
SK-MEL-28 melanoma = test system: SK-MEL-28 melanoma
SK-MEL-5 melanoma = test system: SK-MEL-5 melanoma
SNB-75 CNS = test system: SNB-75 CNS
U251 CNS = test system: U251 CNS
UO-31 renal = test system: UO-31 renal

Structure (SMILES)	TGI (A498 renal)	TGI (HL-60(TB) leukemia)	TGI (HOP-92 NSCLC)	TGI (K-562 leukemia)	TGI (OVCAR-4 ovarian)	TGI (SK-MEL-28 melanoma)	TGI (SK-MEL-5 melanoma)	TGI (SNB-75 CNS)	TGI (U251 CNS)	TGI (UO-31 renal)	GI50 (A498 renal)	GI50 (HL-60(TB) leukemia)	GI50 (HOP-92 NSCLC)	GI50 (K-562 leukemia)	GI50 (OVCAR-4 ovarian)	GI50 (SK-MEL-5 melanoma)	GI50 (SNB-75 CNS)	GI50 (U251 CNS)	GI50 (UO-31 renal)	GI50 (SK-MEL-28 melanoma)
O=C(CC(O)(C(F)(F)F)C(F)(F)F)c1cc(CC(=O)C(O)(C(F)(F)F)C(F)(F)F)cc(CC(=O)C(O)(C(F)(F)F)C(F)(F)F)c1	5.43 µM	> 10 µM	3.35 µM	> 10 µM	> 10 µM	> 5.88 µM	3.04 µM	6.73 µM	6.4 µM	3.84 µM										
Nc1c(C(=O)Nc2cccc(Br)c2)sc2nc3c(cc12)C(=O)CCC3	8.33 µM	> 100 µM	86.2 µM	> 100 µM	> 100 µM	> 100 µM	> 100 µM	> 52.2 µM	> 100 µM	> 100 µM	0.189 µM	0.408 µM	0.64 µM	0.14 µM	28.5 µM	0.4 µM	0.486 µM	0.517 µM	3.07 µM	
C=CCc1cccc(/C=N/NC(=O)CN2CCN(Cc3ccccc3)CC2)c1O	18.2 µM	4.79 µM	6.22 µM	11 µM	11.8 µM	15.5 µM	3.53 µM	12.9 µM	14.9 µM	7.38 µM	4.86 µM	1.6 µM	1.28 µM	1.87 µM	1.45 µM	1.26 µM	2.57 µM	2.13 µM	1.15 µM	2.43 µM
CCCCCCNC(=O)c1nc(-c2ccccc2)oc1Cc1ccc(OP(=O)(O)O)cc1	25.1 µM	62.4 µM	27.9 µM	64 µM	30.8 µM	30.1 µM	30.7 µM	29.2 µM	29.9 µM	26.8 µM	12.5 µM	25.2 µM	14.2 µM	22.6 µM	16.6 µM	16.8 µM	13.1 µM	15.7 µM	12.6 µM	15.9 µM
CCOC(=O)C(=Cc1cccc(Cl)c1)C(=O)OCC	24.2 µM	5.65 µM	4.49 µM	> 100 µM	8.87 µM	3.26 µM	3.35 µM	7.8 µM	15.9 µM	4.12 µM	11.9 µM	2.18 µM	1.74 µM	3.18 µM	2.66 µM	1.83 µM	2.12 µM	4.47 µM	1.84 µM	1.62 µM
COc1cc(CNCCCN2C(=O)c3ccc4c5c(ccc(c35)C2=O)C(=O)N(CCCNCc2cc(OC)c(OC)c(OC)c2)C4=O)cc(OC)c1OC	1.41 µM	1.97 µM	2.49 µM	2.85 µM	0.149 µM	1.57 µM	1.03 µM	1.33 µM	0.93 µM	9.48 µM	0.627 µM	0.919 µM	1.02 µM	0.309 µM	0.0751 µM	0.39 µM	0.589 µM	0.257 µM	2.91 µM	0.841 µM
O=C(c1c(F)ccc(NS(=O)(=O)N2CC[C@@H](F)C2)c1F)c1c[nH]c2ncc(-c3cnc(C4CC4)nc3)cc12	> 10 µM and 23.1 µM	> 10 µM and 41.3 µM	> 10 µM and 32.8 µM	> 100 µM	> 69.7 µM	0.194 µM and 0.599 µM	> 10 µM and 16.7 µM	> 10 µM and 12.8 µM	> 10 µM and 39.3 µM	> 10 µM and 25.5 µM	3.95 µM and 3.77 µM	7.69 µM and 6.11 µM	0.576 µM and 2.24 µM	3.68 µM and 3.12 µM	6.02 µM and 4.39 µM	1.01 µM and 0.651 µM	1.77 µM and 2.17 µM	5.94 µM and 7.53 µM	3.41 µM and 3.79 µM	0.00375 µM and < 0.01 µM
N=c1ccn2c(n1)OC1C(O)C(CO)OC12 (centres undefined)	> 1000 µM	69.7 µM and > 23.6 µM	> 811 µM	> 1000 µM	> 1000 µM	> 607 µM	> 1000 µM	> 1000 µM	> 1000 µM	> 1000 µM	66.3 µM	0.763 µM	8.2 µM and 19.9 µM	81.4 µM	> 100 µM	10.4 µM	> 100 µM	2.11 µM	3.08 µM and 0.355 µM	6.3 µM and > 36.5 µM
CCCn1c(N)c(C(=O)N/N=C(/C)c2cc3cccc(OC)c3o2)sc1=S	> 100 µM	> 100 µM	78.8 µM	> 100 µM	> 100 µM	> 100 µM	> 100 µM	82.3 µM	55.5 µM	> 100 µM	65.4 µM	> 100 µM	27.4 µM	18.3 µM	49.7 µM	36.1 µM	30.1 µM	18.3 µM	27.7 µM	49.7 µM
CCOc1ccc2c(c1)[n+]([O-])c(-c1ccccc1Cl)c(N)[n+]2[O-]	> 100 µM	> 100 µM	> 100 µM	> 100 µM	> 100 µM	> 100 µM	> 100 µM	> 100 µM	> 100 µM	> 100 µM										
O=C1NC(=S)NNC12c1ccccc1-c1ccccc12	9.93 µM	> 10 µM	> 10 µM	> 10 µM	> 10 µM	> 10 µM	> 10 µM	> 10 µM	> 10 µM	> 10 µM										
O=[N+]([O-])c1ccc(-n2nnc(C3=NCCN3)c2-c2ccc(Cl)cc2)cc1	> 100 µM	> 100 µM	> 100 µM	> 100 µM	> 100 µM	> 100 µM	> 100 µM	> 100 µM	> 100 µM	> 100 µM										
COc1cccc(/C=N/[N-]C(=O)c2ccncc2)c1[O-].[Cu+2].[OH3+]	> 100 µM	53.7 µM	> 100 µM	> 100 µM	> 100 µM	> 100 µM	> 100 µM	> 100 µM	> 100 µM	> 100 µM	58.4 µM	23 µM	> 100 µM	33.6 µM	78.6 µM	74.3 µM	28.6 µM	20.5 µM	45.5 µM	> 100 µM
COc1ccncc1C#Cc1cncc(C(=O)Nc2ccc(CN3CCN(C)CC3)c(C(F)(F)F)c2)c1	79.5 µM	46.7 µM	57.2 µM	> 100 µM	> 100 µM	> 100 µM	> 100 µM	> 100 µM	> 100 µM	> 100 µM	17.4 µM	7.4 µM	4.83 µM	0.0229 µM	6.07 µM	39 µM	25.9 µM	35.6 µM	15.4 µM	13.3 µM
COc1ccccc1N1CCN(CCCn2c(=O)c3c(OC)nc(C)cc3c(=O)n2-c2ccccc2)CC1	> 100 µM	> 100 µM	> 100 µM	> 100 µM	> 100 µM	> 100 µM	> 100 µM	> 100 µM	> 100 µM	> 100 µM	> 100 µM	> 100 µM	> 100 µM	> 100 µM	> 100 µM	> 100 µM	> 100 µM	> 100 µM	> 100 µM	> 100 µM
Cc1csc(Nc2nc(-c3cccc(Br)c3)nc(C(Cl)(Cl)Cl)n2)n1	2.47 µM	3.96 µM	6.16 µM	> 100 µM	> 100 µM	> 100 µM	> 100 µM	> 27.9 µM	> 100 µM	> 100 µM	1.06 µM	1.04 µM	1.1 µM	> 24.9 µM	> 100 µM	> 100 µM	1.36 µM	1.83 µM	2.51 µM	3.48 µM
Cn1cnc([N+](=O)[O-])c1S(=O)(=O)Oc1ccccc1	38.1 µM	34.4 µM	19.1 µM	15.5 µM	15.1 µM	32.2 µM	34.2 µM	34.9 µM	> 66.3 µM	3.47 µM	16.8 µM	12.1 µM	5.85 µM	2.52 µM	3.22 µM	17.3 µM	14.9 µM	23.5 µM	1.68 µM	8.61 µM
